{"source": "PubChem BioAssay (NCI)", "assay_in_all_cases": "NCI-60 cell line screen, 48 h", "key": {"[1]": {"tested_on": "DU-145 prostate"}, "[2]": {"tested_on": "HL-60(TB) leukemia"}, "[3]": {"tested_on": "OVCAR-3 ovarian"}, "[4]": {"tested_on": "OVCAR-8 ovarian"}, "[5]": {"tested_on": "SF-539 CNS"}, "[6]": {"tested_on": "SK-MEL-5 melanoma"}, "[7]": {"tested_on": "SNB-19 CNS"}, "[8]": {"tested_on": "SR leukemia"}, "[9]": {"tested_on": "TK-10 renal"}, "[10]": {"tested_on": "UACC-257 melanoma"}}, "note": "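Protocol summary: plate cells (96-well), add compound at 5 concentrations, incubate 48 h, interpolate endpoints linearly. GI50 is the concentration that inhibits growth by half. TGI denotes the concentration required for complete inhibition of growth.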"}
{"molecule": "CC(=O)c1c[nH]c2ccc(-c3ccnc(Nc4ccc(NC(=O)c5cccc(F)c5)c(CN5CCOCC5)c4)n3)cc12", "values": [{"measurement": "GI50", "setting": "[1]", "result": 185, "unit": "nM"}, {"measurement": "TGI", "setting": "[1]", "result": "> 100000", "unit": "nM"}, {"measurement": "GI50", "setting": "[2]", "result": 242, "unit": "nM"}, {"measurement": "TGI", "setting": "[2]", "result": 928, "unit": "nM"}, {"measurement": "GI50", "setting": "[3]", "result": 95.5, "unit": "nM"}, {"measurement": "TGI", "setting": "[3]", "result": 932, "unit": "nM"}, {"measurement": "GI50", "setting": "[4]", "result": 255, "unit": "nM"}, {"measurement": "TGI", "setting": "[4]", "result": "> 100000", "unit": "nM"}, {"measurement": "GI50", "setting": "[5]", "result": 80.9, "unit": "nM"}, {"measurement": "TGI", "setting": "[5]", "result": 457, "unit": "nM"}, {"measurement": "GI50", "setting": "[6]", "result": 135, "unit": "nM"}, {"measurement": "TGI", "setting": "[6]", "result": 463, "unit": "nM"}, {"measurement": "GI50", "setting": "[7]", "result": 218, "unit": "nM"}, {"measurement": "TGI", "setting": "[7]", "result": 9800, "unit": "nM"}, {"measurement": "GI50", "setting": "[8]", "result": 36.3, "unit": "nM"}, {"measurement": "TGI", "setting": "[8]", "result": "> 100000", "unit": "nM"}, {"measurement": "GI50", "setting": "[9]", "result": 268, "unit": "nM"}, {"measurement": "TGI", "setting": "[9]", "result": 1950, "unit": "nM"}, {"measurement": "GI50", "setting": "[10]", "result": 304, "unit": "nM"}, {"measurement": "TGI", "setting": "[10]", "result": 2650, "unit": "nM"}]}
{"molecule": "Cc1cc(CC(O)(C(F)(F)F)C(F)(F)F)cc(CC(O)(C(F)(F)F)C(F)(F)F)n1", "values": [{"measurement": "TGI", "setting": "[1]", "result": 7940, "unit": "nM"}, {"measurement": "TGI", "setting": "[2]", "result": 7850, "unit": "nM"}, {"measurement": "TGI", "setting": "[3]", "result": 2760, "unit": "nM"}, {"measurement": "TGI", "setting": "[4]", "result": 12400, "unit": "nM"}, {"measurement": "TGI", "setting": "[5]", "result": 8710, "unit": "nM"}, {"measurement": "TGI", "setting": "[6]", "result": 3340, "unit": "nM"}, {"measurement": "TGI", "setting": "[7]", "result": "> 100000", "unit": "nM"}, {"measurement": "TGI", "setting": "[8]", "result": 15100, "unit": "nM"}, {"measurement": "TGI", "setting": "[9]", "result": 13600, "unit": "nM"}, {"measurement": "TGI", "setting": "[10]", "result": 8650, "unit": "nM"}]}
{"molecule": "NS(=O)(=O)OC[C@H]1O[C@@H](n2cnc3c(N[C@H]4CCc5ccccc54)ncnc32)[C@H](O)[C@@H]1O", "values": [{"measurement": "GI50", "setting": "[1]", "result": 83.8, "unit": "nM"}, {"measurement": "TGI", "setting": "[1]", "result": 1360, "unit": "nM"}, {"measurement": "GI50", "setting": "[2]", "result": 48.2, "unit": "nM"}, {"measurement": "TGI", "setting": "[2]", "result": 1440, "unit": "nM"}, {"measurement": "GI50", "setting": "[3]", "result": 40.9, "unit": "nM"}, {"measurement": "TGI", "setting": "[3]", "result": 145, "unit": "nM"}, {"measurement": "GI50", "setting": "[4]", "result": 86.5, "unit": "nM"}, {"measurement": "TGI", "setting": "[4]", "result": 1020, "unit": "nM"}, {"measurement": "GI50", "setting": "[5]", "result": 35.1, "unit": "nM"}, {"measurement": "TGI", "setting": "[5]", "result": 117, "unit": "nM"}, {"measurement": "GI50", "setting": "[6]", "result": 36.9, "unit": "nM"}, {"measurement": "TGI", "setting": "[6]", "result": 151, "unit": "nM"}, {"measurement": "GI50", "setting": "[7]", "result": 90.2, "unit": "nM"}, {"measurement": "TGI", "setting": "[7]", "result": 2050, "unit": "nM"}, {"measurement": "GI50", "setting": "[8]", "result": 36.8, "unit": "nM"}, {"measurement": "TGI", "setting": "[8]", "result": "> 52600", "unit": "nM"}, {"measurement": "GI50", "setting": "[9]", "result": 608, "unit": "nM"}, {"measurement": "TGI", "setting": "[9]", "result": 3240, "unit": "nM"}, {"measurement": "GI50", "setting": "[10]", "result": 213, "unit": "nM"}, {"measurement": "TGI", "setting": "[10]", "result": 577, "unit": "nM"}]}
{"molecule": "Nc1nc(Cl)cc2c1ncn2C1OC(CO)C(O)C1O", "note": "(stereo not given)", "values": [{"measurement": "GI50", "setting": "[1]", "result": "> 100000", "unit": "nM"}, {"measurement": "TGI", "setting": "[1]", "result": "> 100000", "unit": "nM"}, {"measurement": "GI50", "setting": "[2]", "result": "> 100000", "unit": "nM"}, {"measurement": "TGI", "setting": "[2]", "result": "> 100000", "unit": "nM"}, {"measurement": "GI50", "setting": "[3]", "result": "> 100000", "unit": "nM"}, {"measurement": "TGI", "setting": "[3]", "result": "> 100000", "unit": "nM"}, {"measurement": "GI50", "setting": "[4]", "result": "> 100000", "unit": "nM"}, {"measurement": "TGI", "setting": "[4]", "result": "> 100000", "unit": "nM"}, {"measurement": "GI50", "setting": "[5]", "result": "> 100000", "unit": "nM"}, {"measurement": "TGI", "setting": "[5]", "result": "> 100000", "unit": "nM"}, {"measurement": "GI50", "setting": "[6]", "result": "> 100000", "unit": "nM"}, {"measurement": "TGI", "setting": "[6]", "result": "> 100000", "unit": "nM"}, {"measurement": "GI50", "setting": "[7]", "result": "> 100000", "unit": "nM"}, {"measurement": "TGI", "setting": "[7]", "result": "> 100000", "unit": "nM"}, {"measurement": "GI50", "setting": "[8]", "result": "> 100000", "unit": "nM"}, {"measurement": "TGI", "setting": "[8]", "result": "> 100000", "unit": "nM"}, {"measurement": "GI50", "setting": "[9]", "result": "> 100000", "unit": "nM"}, {"measurement": "TGI", "setting": "[9]", "result": "> 100000", "unit": "nM"}, {"measurement": "GI50", "setting": "[10]", "result": "> 100000", "unit": "nM"}, {"measurement": "TGI", "setting": "[10]", "result": "> 100000", "unit": "nM"}]}
